# Measured values reported in ChEMBL document CHEMBL1201861, “Genomics of Drug Sensitity in Cancer screening data, Wellcome Trust Sanger Institute”.
# Experiments:
# [1] = system: DMS-273; assay: cells; assay type: functional, cell-based; settings: Homo sapiens
# Description: SANGER: Inhibition of human DMS-273 cell growth in a cell viability assay.
# [2] = system: G-361; assay: cells; assay type: functional, cell-based; settings: Homo sapiens
# [3] = system: HT-1080; assay: cells; assay type: functional, cell-based; settings: Homo sapiens
# Description: SANGER: Inhibition of human HT-1080 cell growth in a cell viability assay.
# [4] = system: HuCCT-1; assay: cells; assay type: functional, cell-based, HuCCT1; settings: Homo sapiens;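 note: growth inhibition of HuCCT-1 cells, read out by a cell viability assay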
# Description: SANGER: Inhibition of human HuCCT1 cell growth in a cell viability assay.
# [5] = system: MC-IXC; assay: cells; assay type: functional, cell-based; settings: Homo sapiens;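 note: growth inhibition of MC-IXC cells, read out with a cell viability assay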
# Description: SANGER: Inhibition of human MC-IXC cell growth in a cell viability assay.
# [6] = system: NCI-H2122; assay: cells; assay type: functional, cell-based; settings: Homo sapiens;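 note: growth inhibition of the cells, read out with a cell viability assay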
# Description: SANGER: Inhibition of human NCI-H2122 cell growth in a cell viability assay.
# [7] = system: SF-295; assay: cells; assay type: functional, cell-based; settings: Homo sapiens;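 note: growth inhibition of SF-295 cells, read out with a cell viability assay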
# Description: SANGER: Inhibition of human SF295 cell growth in a cell viability assay.
# [8] = system: SU-DHL-1; assay: SANGER: Inhibition of human SU-DHL-1 cell growth in a cell viability assay.; assay type: functional, cell-based; settings: Homo sapiens, SU-DHL-1
# [9] = system: T47D; assay: cells; assay type: functional, cell-based; settings: Homo sapiens;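 note: growth inhibition of human T47D cells, measured with a cell viability assay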
# Description: SANGER: Inhibition of human T47D cell growth in a cell viability assay.
# [10] = system: 5637; assay: cells; assay type: functional, cell-based; settings: Homo sapiens
# Description: SANGER: Inhibition of human 5637 cell growth in a cell viability assay.
# [11] = system: BL-70; assay: SANGER: Inhibition of human BL-70 cell growth in a cell viability assay.; assay type: functional, cell-based; settings: Homo sapiens, BL-70
# [12] = system: CAL-85-1; assay: cells; assay type: functional, cell-based; settings: Homo sapiens;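 note: growth inhibition of human CAL-85-1 cells, read out with a cell viability assay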
# Description: SANGER: Inhibition of human CAL-85-1 cell growth in a cell viability assay.
# [13] = system: VM-CUB-1; assay: cells; assay type: functional, cell-based; settings: Homo sapiens;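 note: cell viability assay measuring growth inhibition of the human VM-CUB-1 cell line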
# Description: SANGER: Inhibition of human VM-CUB-1 cell growth in a cell viability assay.
# [14] = system: COR-L105; assay: cells; assay type: functional, cell-based; settings: Homo sapiens
# Description: SANGER: Inhibition of human COR-L105 cell growth in a cell viability assay.
# [15] = system: Ca9-22; assay: cells; assay type: functional, cell-based; settings: Homo sapiens;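 note: growth inhibition of Ca9-22 cells, read out with a cell viability assay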
# Description: SANGER: Inhibition of human Ca9-22 cell growth in a cell viability assay.
# [16] = system: D-336MG; assay: cells; assay type: functional, cell-based, Homo sapiens; settings: Homo sapiens, D-336MG
# Description: SANGER: Inhibition of human D-336MG cell growth in a cell viability assay.
# [17] = system: Daudi; assay: cells; assay type: functional, cell-based, Homo sapiens; settings: Homo sapiens, Daudi;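 note: growth inhibition of Daudi cells, read out by a viability assay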
# Description: SANGER: Inhibition of human Daudi cell growth in a cell viability assay.
# [18] = system: ECC4; assay: cells; assay type: functional, cell-based, Homo sapiens; settings: Homo sapiens, ECC4;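 note: growth inhibition of ECC4 cells, read out with a cell viability assay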
# Description: SANGER: Inhibition of human ECC4 cell growth in a cell viability assay.
# [19] = system: EFO-21; assay: cells; assay type: functional, cell-based; settings: Homo sapiens;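 note: growth inhibition of EFO-21 cells measured with a viability assay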
# Description: SANGER: Inhibition of human EFO-21 cell growth in a cell viability assay.
# [20] = system: EVSA-T; assay: cells; assay type: functional, cell-based, Homo sapiens; settings: Homo sapiens, EVSA-T;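 note: growth inhibition of EVSA-T cells, read out with a cell viability assay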
# Description: SANGER: Inhibition of human EVSA-T cell growth in a cell viability assay.
# [21] = system: FTC-133; assay: cells; assay type: functional, cell-based; settings: Homo sapiens
# [22] = system: GAMG; assay: cells; assay type: functional, cell-based; settings: Homo sapiens;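 note: cell growth inhibition measured by a viability assay in the GAMG human cell line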
# Description: SANGER: Inhibition of human GAMG cell growth in a cell viability assay.
# [23] = system: HCC1419; assay: cells; assay type: functional, cell-based; settings: Homo sapiens;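 note: growth inhibition of human HCC1419 cells, read out as cell viability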
# Description: SANGER: Inhibition of human HCC1419 cell growth in a cell viability assay.
# [24] = system: HCC1569; assay: cells; assay type: functional, cell-based; settings: Homo sapiens;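 note: growth inhibition of human HCC1569 cells, read out with a cell viability assay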
# Description: SANGER: Inhibition of human HCC1569 cell growth in a cell viability assay.
# [25] = system: HLE; assay: cells; assay type: functional, cell-based; settings: Homo sapiens;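 note: growth inhibition of human HLE cells, read out by a cell viability assay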
# Description: SANGER: Inhibition of human HLE cell growth in a cell viability assay.
# [26] = system: HuTu80; assay: cells; assay type: functional, cell-based, Homo sapiens, HUTU-80; settings: Homo sapiens, HuTu80;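 note: growth inhibition of HuTu80 human cells, determined with a cell viability readout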
# Description: SANGER: Inhibition of human HUTU-80 cell growth in a cell viability assay.
# [27] = system: Kasumi 1; assay: cells; assay type: functional, cell-based, Homo sapiens; settings: Homo sapiens, Kasumi 1;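 note: growth inhibition of human Kasumi-1 cells, read out by a cell viability assay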
# Description: SANGER: Inhibition of human KASUMI-1 cell growth in a cell viability assay.
# [28] = system: KYSE-150 cell line; assay: cells; assay type: functional, cell-based; settings: Homo sapiens;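 note: growth inhibition of human KYSE-150 cells, read out with a cell viability assay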
# Description: SANGER: Inhibition of human KYSE-150 cell growth in a cell viability assay.
# [29] = system: LC-1F; assay: cells; assay type: functional, cell-based, Homo sapiens; settings: Homo sapiens, LC-1F;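 note: growth inhibition of human LC-1F cells, read out with a cell viability assay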
# Description: SANGER: Inhibition of human LC-1F cell growth in a cell viability assay.
# [30] = system: MDA-MB-361; assay: cells; assay type: functional, cell-based; settings: Homo sapiens
# [31] = system: NB1; assay: cells; assay type: functional, cell-based, Homo sapiens; settings: Homo sapiens, NB1;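 note: reduction of NB1 cell proliferation, read out with a viability assay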
# Description: SANGER: Inhibition of human NB1 cell growth in a cell viability assay.
# [32] = system: NCI-H1563; assay: cells; assay type: functional, cell-based; settings: Homo sapiens;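 note: growth inhibition of human NCI-H1563 cells, read out with a cell viability assay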
# Description: SANGER: Inhibition of human NCI-H1563 cell growth in a cell viability assay.
# [33] = system: NCI-H2196; assay: cells; assay type: functional, cell-based, Homo sapiens; settings: Homo sapiens, NCI-H2196; read-out: IC50;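 note: cell viability assay used as the readout of growth inhibition in NCI-H2196 cells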
# Description: SANGER: Inhibition of human NCI-H2196 cell growth in a cell viability assay.
# [34] = system: NCI-H2452; assay: cells; assay type: functional, cell-based; settings: Homo sapiens;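 note: growth inhibition of NCI-H2452 cells, read out with a cell viability assay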
# Description: SANGER: Inhibition of human NCI-H2452 cell growth in a cell viability assay.
# [35] = system: NCI-H28; assay: cells; assay type: functional, cell-based; settings: Homo sapiens;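 note: growth inhibition of human NCI-H28 cells, read out as cell viability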
# Description: SANGER: Inhibition of human NCI-H28 cell growth in a cell viability assay.
# [36] = system: NCI-H345; assay: cells; assay type: functional, cell-based, Homo sapiens; settings: Homo sapiens, NCI-H345;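 note: growth inhibition of NCI-H345 cells measured with a cell viability assay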
# Description: SANGER: Inhibition of human NCI-H345 cell growth in a cell viability assay.
# [37] = system: NCI-H661; assay: cells; assay type: functional, cell-based; settings: Homo sapiens;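 note: cell viability assay read-out, IC50 being the concentration that inhibits growth of the cells by half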
# Description: SANGER: Inhibition of human NCI-H661 cell growth in a cell viability assay.
# [38] = system: NCI-H889; assay: cells; assay type: functional, cell-based, Homo sapiens; settings: Homo sapiens, NCI-H889;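 note: cell growth inhibition of the cell line, read out with a viability assay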
# Description: SANGER: Inhibition of human NCI-H889 cell growth in a cell viability assay.
# [39] = system: PA-1; assay: cells; assay type: functional, cell-based; settings: Homo sapiens;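 note: IC50 for suppression of PA-1 cell proliferation, determined with a cell viability read-out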
# Description: SANGER: Inhibition of human PA-1 cell growth in a cell viability assay.
# [40] = system: Panc1005; assay: cells; assay type: functional, cell-based; settings: Homo sapiens;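 note: growth inhibition of human PANC-10-05 cells, measured by a cell viability assay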
# Description: SANGER: Inhibition of human PANC-10-05 cell growth in a cell viability assay.
# [41] = system: REH; assay: cells; assay type: functional, cell-based, Homo sapiens; settings: Homo sapiens, REH;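 note: growth inhibition of REH cells determined with a cell viability read-out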
# Description: SANGER: Inhibition of human REH cell growth in a cell viability assay.
# [42] = system: SAS; assay: cells; assay type: functional, cell-based; settings: Homo sapiens;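 note: growth inhibition of SAS cells, read out with a cell viability assay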
# Description: SANGER: Inhibition of human SAS cell growth in a cell viability assay.
# [43] = system: SBC-5; assay: cells; assay type: functional, cell-based; settings: Homo sapiens;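 note: cell viability assay read-out, IC50 is the concentration that inhibits growth of the cells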
# Description: SANGER: Inhibition of human SBC-5 cell growth in a cell viability assay.
# [44] = system: SUP-T1; assay: cells; assay type: functional, cell-based, Homo sapiens; settings: Homo sapiens, SUP-T1;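 note: growth inhibition of human SUP-T1 cells, read out as cell viability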
# Description: SANGER: Inhibition of human SUP-T1 cell growth in a cell viability assay.
# [45] = system: SW1710; assay: cells; assay type: functional, cell-based; settings: Homo sapiens;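 note: growth inhibition of SW1710 cells, determined with a cell viability assay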
# Description: SANGER: Inhibition of human SW1710 cell growth in a cell viability assay.
# [46] = system: SW-620; assay: cells; assay type: functional, cell-based; settings: Homo sapiens;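 note: growth inhibition of human SW-620 cells, measured by a cell viability assay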
# Description: SANGER: Inhibition of human SW620 cell growth in a cell viability assay.
# [47] = system: SW756; assay: cells; assay type: functional, cell-based; settings: Homo sapiens;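 note: growth inhibition of human SW756 cells, read out with a cell viability assay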
# Description: SANGER: Inhibition of human SW756 cell growth in a cell viability assay.
# [48] = system: T-24; assay: cells; assay type: functional, cell-based; settings: Homo sapiens;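 note: growth inhibition of T-24 cells, read out with a cell viability assay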
# Description: SANGER: Inhibition of human T-24 cell growth in a cell viability assay.
# [49] = system: 639-V; assay: cells; assay type: functional, cell-based; settings: Homo sapiens;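 note: growth inhibition of 639-V cells, read out with a cell viability assay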
# Description: SANGER: Inhibition of human 639-V cell growth in a cell viability assay.
# [50] = system: 786-0; assay: cells; assay type: functional, cell-based; settings: Homo sapiens
# Description: SANGER: Inhibition of human 786-0 cell growth in a cell viability assay.
# [51] = system: 8505C; assay: cells; assay type: functional, cell-based; settings: Homo sapiens
# Description: SANGER: Inhibition of human 8505C cell growth in a cell viability assay.
# [52] = system: ARH-77; assay: cells; assay type: functional, cell-based, Homo sapiens; settings: Homo sapiens, ARH-77;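 note: growth inhibition of ARH-77 cells, read out by a cell viability assay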
# Description: SANGER: Inhibition of human ARH-77 cell growth in a cell viability assay.
# [53] = system: BFTC-905; assay: cells; assay type: functional, cell-based; settings: Homo sapiens
# Description: SANGER: Inhibition of human BFTC-905 cell growth in a cell viability assay.
# [54] = system: C3A; assay: cells; assay type: functional, cell-based; settings: Homo sapiens;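 note: growth inhibition of C3A human cells, quantified with a cell viability readout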
# Description: SANGER: Inhibition of human C3A cell growth in a cell viability assay.
# [55] = system: CA46; assay: cells; assay type: functional, cell-based, Homo sapiens; settings: Homo sapiens, CA46;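 note: growth inhibition of human CA46 cells, read out by a cell viability assay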
# Description: SANGER: Inhibition of human CA46 cell growth in a cell viability assay.
# [56] = system: CAL-12T; assay: cells; assay type: functional, cell-based; settings: Homo sapiens;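 note: growth inhibition of human CAL-12T cells, read out with a cell viability assay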
# Description: SANGER: Inhibition of human CAL-12T cell growth in a cell viability assay.
# [57] = system: U-251; assay: cells; assay type: functional, cell-based; settings: Homo sapiens;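 note: growth inhibition of human U-251 cells, read out through a cell viability assay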
# Description: SANGER: Inhibition of human U251 cell growth in a cell viability assay.
# [58] = system: UACC-62; assay: cells; assay type: functional, cell-based; settings: Homo sapiens;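 note: growth inhibition of human UACC-62 cells, read out by a cell viability assay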
# Description: SANGER: Inhibition of human UACC-62 cell growth in a cell viability assay.
# [59] = system: CAMA-1; assay: cells; assay type: functional, cell-based; settings: Homo sapiens;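 note: growth inhibition of CAMA-1 cells, read out with a cell viability assay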
# Description: SANGER: Inhibition of human CAMA-1 cell growth in a cell viability assay.
structure (smiles),measurement,setting,value
CO[C@@H]1[C@H](N(C)C(=O)c2ccccc2)C[C@H]2O[C@]1(C)n1c3ccccc3c3c4c(c5c6ccccc6n2c5c31)C(=O)NC4 [MIDOSTAURIN],IC50,[1],324 nM
same,IC50,[2],209 nM
same,IC50,[3],160 nM
same,IC50,[4],179 nM
same,IC50,[5],266 nM
same,IC50,[6],323 nM
same,IC50,[7],273 nM
same,IC50,[8],> 512 nM
same,IC50,[9],> 512 nM
same,IC50,[10],> 512 nM
same,IC50,[11],> 512 nM
same,IC50,[12],> 512 nM
same,IC50,[13],> 512 nM
Cc1ccc(C(=O)Nc2ccc(CN3CCN(C)CC3)c(C(F)(F)F)c2)cc1C#Cc1cnc2cccnn12 [PONATINIB],IC50,[14],> 512 nM
same,IC50,[15],> 512 nM
same,IC50,[16],> 512 nM
same,IC50,[1],> 512 nM
same,IC50,[17],25.4 nM
same,IC50,[18],> 512 nM
same,IC50,[19],304 nM
same,IC50,[20],> 512 nM
same,IC50,[21],> 512 nM
same,IC50,[2],> 512 nM
same,IC50,[22],> 512 nM
same,IC50,[23],> 512 nM
same,IC50,[24],> 512 nM
same,IC50,[25],419 nM
same,IC50,[3],> 512 nM
same,IC50,[26],> 512 nM
same,IC50,[4],> 512 nM
same,IC50,[27],2.17 nM
same,IC50,[28],424 nM
same,IC50,[29],> 512 nM
same,IC50,[5],> 512 nM
same,IC50,[30],> 512 nM
same,IC50,[31],> 512 nM
same,IC50,[32],> 512 nM
same,IC50,[6],> 512 nM
same,IC50,[33],> 512 nM
same,IC50,[34],> 512 nM
same,IC50,[35],> 512 nM
same,IC50,[36],> 512 nM
same,IC50,[37],> 512 nM
same,IC50,[38],> 512 nM
same,IC50,[39],> 512 nM
same,IC50,[40],> 512 nM
same,IC50,[41],> 512 nM
same,IC50,[42],> 512 nM
same,IC50,[43],> 512 nM
same,IC50,[7],> 512 nM
same,IC50,[8],63.8 nM
same,IC50,[44],99.8 nM
same,IC50,[45],365 nM
same,IC50,[46],> 512 nM
same,IC50,[47],> 512 nM
same,IC50,[48],> 512 nM
same,IC50,[9],> 512 nM
same,IC50,[10],> 512 nM
same,IC50,[49],> 512 nM
same,IC50,[50],262 nM
same,IC50,[51],> 512 nM
same,IC50,[52],> 512 nM
same,IC50,[53],> 512 nM
same,IC50,[11],22 nM
same,IC50,[54],> 512 nM
same,IC50,[55],175 nM
same,IC50,[56],> 512 nM
same,IC50,[12],179 nM
same,IC50,[57],> 512 nM
same,IC50,[58],> 512 nM
same,IC50,[13],> 512 nM
same,IC50,[59],> 512 nM
